Experimental findings from US20200029601A1, “PHENYLACRYLIC ACID SOLUTION FOR BROAD SPECTRUM ANTIMICROBIAL APPLICATIONS FOR FOODSTUFFS” (KLF LABS LLC, priority 2018, published 2020) are described below.

Structures are written as SMILES. Like-named read-outs stand apart in the source and are kept apart here.

The subject of test [1] is Aspergillus brasiliensis. The settings on record: 1000 ppm, pH 4.0. The source says:
(§1) To determine ascertain bactericidal and fungicidal qualities of the present food preservative solution, certain embodiments containing a combination of phenylacrylic acid, sorbic acid, a potentiation agent and a stabilization agent were subjected to a modified version of the United States Pharmocopedia (USP) antimicrobial efficacy test found in chapter 51 of the USP 40 manual. All embodiments were between pH 3.95-4.05.
(§2) To each of the embodiments, 1×10^6 cells from the following spoilage organisms; Escheria coli, Listeria monocytogenes, Salmonella entericia, Aspergillus flavus, Aspergillus brasiliensis, and Zygosaccharomyces bailii. The microbials were homogeneously dispersed in the various embodiments. Small aliquots are taken from the inoculated samples at the appropriate time point is serial diluted and plated. The plates are incubated, and growth is then enumerated. The counts are multiplied by the appropriate dilution factor to give a viable cell count at that time point.

The test system of test [2] is Aspergillus flavus. The settings on record: 1000 ppm, pH 4.0.
Text: as §1, §2

For test [3], the system named is Escheria coli. To be noted: 1000 ppm, pH 4.0.
Text: as §1, §2

For test [4], the system named is Listeria monocytogenes. The settings on record: 1000 ppm, pH 4.0.
Text: as §1, §2

The subject of test [5] is Salmonella entericia. To be noted: 1000 ppm, pH 4.0.
Text: as §1, §2

For test [6], the system named is Zygosaccharomyces bailii. To be noted: 1000 ppm, pH 4.0.
Text: as §1, §2

Test [7] concerns Saccharomyces cerevisiae, Candida parapsilosis, Zygosaccharomyces rouxii, and Zygosaccharomyces bailii. Kind of test: Experimental Test 3, summary statements over the yeast species. The class given is cell-based. To be noted: Tables 12-15; pH 3.1-7.5. The method, then: The media was then sterilized by steam autoclaving the solution for 15 minutes at 121° C. and the media was placed into 3 96 cell plates and pH using either 0.1N HCl or 0.1N NaOH to pH values of 3.1, 5.6, 6.0, 6.5, 7.0, and 7.5.
Three exemplary embodiment solutions were added and serial diluted into a series of treatment wells and 0.5 McFarland Standard's worth of yeast cells were added to each well. The plates were incubated at 32° C. for 48 hours and then the OD was read at 600 nm. The percent inhibition was graphed as a percentage of the following formula indicated in Equation 1.

In the case of `CC=CC=CC(=O)O` [Sorbic Acid, 2,4 hexadienoic acid], the Microbial plate count in test [1] (Test Day 0) is 630000 CFU/g; in test [1] (Test Day 0.5) it was 230000 CFU/g; in test [1] (Test Day 1) it was 520 CFU/g; in test [1] (Test Day 3) it was below 10 CFU/g; in test [1] (Test Day 7) it was below 10 CFU/g; in test [2] (Test Day 0), 510000 CFU/g. Also, the Microbial plate count in test [2] (Test Day 0.5) is 8500 CFU/g; in test [2] (Test Day 1), below 10 CFU/g; in test [2] (Test Day 3) it was below 10 CFU/g; in test [2] (Test Day 7) it was below 10 CFU/g; in test [3] (Test Day 0), 580000 CFU/g; in test [3] (Test Day 0.5), below 10 CFU/g. Also, the Microbial plate count in test [3] (Test Day 1) is below 10 CFU/g; in test [3] (Test Day 3), below 10 CFU/g; in test [3] (Test Day 7) it was below 10 CFU/g; in test [4] (Test Day 0) it was 620000 CFU/g; in test [4] (Test Day 0.5), below 10 CFU/g; in test [4] (Test Day 1), below 10 CFU/g. In addition, the Microbial plate count in test [4] (Test Day 3) is on record as below 10 CFU/g; in test [4] (Test Day 7), below 10 CFU/g; in test [5] (Test Day 0), 800000 CFU/g; in test [5] (Test Day 0.5) it was below 10 CFU/g; in test [5] (Test Day 1), below 10 CFU/g; in test [5] (Test Day 3) it was below 10 CFU/g. Moreover, the Microbial plate count in test [5] (Test Day 7) was below 10 CFU/g; in test [6] (Test Day 0), 480000 CFU/g; in test [6] (Test Day 0.5), 130000 CFU/g; in test [6] (Test Day 1), 1600 CFU/g; in test [6] (Test Day 3), 120 CFU/g; in test [6] (Test Day 7), below 10 CFU/g.

As for `O=C(O)C(O)c1ccccc1` (stereo not shown) [mandelic acid], the “increase of the efficacy of potassium sorbate by addition of mandelic acid” value in test [7] is listed as 2-10 ×.
